Experimental data from patent publication US20040006236A1, “Diaminopropionic acid derivatives” (priority 1999, published 2004).

Assays:
[1] = target: T1, LFA-1 binding to immobilized ICAM-1 (Homo sapiens, UniProt P05107+P20701); assay: LFA-1/ICAM-1 protein-protein assay (solid-phase ELISA); settings: read-out: LFA-1/ICAM-1 Protein-Protein Assay IC50
T1 construct: made in house; host or cells: transfected 293 cells (LFA-1)
Summary of the method: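 Human 5dICAM-Ig (ICAM-1 extracellular domain–IgG Fc) coated on plates; membrane-bound LFA-1 from transfected 293 cells (280 ng/mL) added with compound in Mn2+-containing HEPES buffer pH 7.2, 2 h at 37° C. Bound LFA-1 detected via anti-β2 antibody and HRP/TMB at 450 nm; IC50s determined.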

[2] = test system: Mac-1 and LFA-1-mediated neutrophil binding to immobilized ICAM-1; assay: Neutrophil (Mac-1 and LFA-1)/ICAM-1 cell-based screening assay; settings: human neutrophils
Method: Both Mac-1 and LFA-1 are expressed on the cell surface of neutrophils. The ability of antagonists to inhibit Mac-1 and LFA-1-mediated neutrophil binding to immobilized ICAM-1 was quantitated by a cell based assay. Typically, fusion protein consisting of the entire extracellular domain of human ICAM-1 and the Fc domain of human IgG (5dICAM-Ig) was coated onto 96 well microtiter plates (1 μg in 100 μL TBS) overnight at 4° C. The plates were then blocked with 150 μL of 10% PVP in TBS for 1 h at 37° C. Plates were washed 3 times (150 μL each) with TBS. Human neutrophils were purified from whole blood from healthy volunteers using LSM (ICN). Cells (8×10^6/mL) were fluorescently labeled with 6-carboxyfluorescein (100 μg/mL) for 40 min in IMDM/1 mM MgCl2/1.2 mM CaCl2 as described in Example 287. Cells (8×10^6/mL) were stimulated with f-Met-Leu-Phe (10 μM) for 5 min at room temperature just prior to being used in the assay, and diluted to 2×10^6 cells/mL with RPMI/0.05% BSA/0.2 mM MnCl2. Stock solutions (10 mM) of test compounds were diluted to 2.5 mM with DMSO. A series of 1:4 dilutions in DMSO were performed to achieve a concentration range of 38.2 nM-2.5 mM. Each sample was further diluted 50-fold with RPMI/0.05% BSA/0.2 mM MnCl2. Equal volumes of labeled cells were then added to assay tubes containing diluted compound. Final concentrations of compound tested in the assay ranged from 0.38 nM-25 μM with a cell concentration of 1×10^6 per mL. Cells were incubated for 10 min at 37° C. with gentle shaking, then dispensed (100 μL per well) onto ICAM-1 coated plates and incubated for 30 min at 37° C./5% CO2. Unbound cells were washed and plates were read on a Cytofluor™ 2300 (Millipore) as described in Example 384.

[3] = test system: T lymphocyte proliferation (C57BI/6 spleen cells with irradiated BALB/c spleen cells); assay: Mixed lymphocyte reaction (MLR), one-way; assay type: cell-based, mice; settings: Mus musculus, T-lymphocyte; read-out: MLR IC50
Source text: Admixture of murine spleen cells from two different inbred strains of mice induces proliferation of T lymphocytes. The magnitude of T cell proliferation depends on the extent of disparity in the major histocompatibility antigens between the two strains. Splenic T lymphocytes from both strains proliferate due to alloantigen recognition, a process for which the interaction of ICAM-1 on antigen-presenting cells with LFA-1 on lymphocytes is necessary. The ability of antagonists to inhibit T lymphocyte proliferation following recognition of alloantigens was assessed in a one-way MLR, where cells from one strain were irradiated to permit measurement of the proliferative response of cells from the other strain. Spleen cells were washed three times in tissue culture medium (TCM; see below). […] One hundred microliters of serial dilutions of antagonists or TCM were added to the spleen cell mixture. The total volume in each well was 200 μL. TCM was RPMI1640 containing 10% heat-inactivated fetal bovine serum, […] L-glutamine, 100 Units/ml each of penicillin and streptomycin and 5×10^−5 M 2-mercaptoethanol. Dilutions of antagonists were prepared in TCM. Plates were incubated in 5% CO2 for 3 days. On the third day, 0.5 μCi of tritiated thymidine (10 μCi/mL) was added to all the wells. Cells were harvested 6 h later on a 96-well plate harvester and the amount of tritiated thymidine incorporated was assessed in a liquid scintillation counter.

T1 sequence (P20701 26-1170): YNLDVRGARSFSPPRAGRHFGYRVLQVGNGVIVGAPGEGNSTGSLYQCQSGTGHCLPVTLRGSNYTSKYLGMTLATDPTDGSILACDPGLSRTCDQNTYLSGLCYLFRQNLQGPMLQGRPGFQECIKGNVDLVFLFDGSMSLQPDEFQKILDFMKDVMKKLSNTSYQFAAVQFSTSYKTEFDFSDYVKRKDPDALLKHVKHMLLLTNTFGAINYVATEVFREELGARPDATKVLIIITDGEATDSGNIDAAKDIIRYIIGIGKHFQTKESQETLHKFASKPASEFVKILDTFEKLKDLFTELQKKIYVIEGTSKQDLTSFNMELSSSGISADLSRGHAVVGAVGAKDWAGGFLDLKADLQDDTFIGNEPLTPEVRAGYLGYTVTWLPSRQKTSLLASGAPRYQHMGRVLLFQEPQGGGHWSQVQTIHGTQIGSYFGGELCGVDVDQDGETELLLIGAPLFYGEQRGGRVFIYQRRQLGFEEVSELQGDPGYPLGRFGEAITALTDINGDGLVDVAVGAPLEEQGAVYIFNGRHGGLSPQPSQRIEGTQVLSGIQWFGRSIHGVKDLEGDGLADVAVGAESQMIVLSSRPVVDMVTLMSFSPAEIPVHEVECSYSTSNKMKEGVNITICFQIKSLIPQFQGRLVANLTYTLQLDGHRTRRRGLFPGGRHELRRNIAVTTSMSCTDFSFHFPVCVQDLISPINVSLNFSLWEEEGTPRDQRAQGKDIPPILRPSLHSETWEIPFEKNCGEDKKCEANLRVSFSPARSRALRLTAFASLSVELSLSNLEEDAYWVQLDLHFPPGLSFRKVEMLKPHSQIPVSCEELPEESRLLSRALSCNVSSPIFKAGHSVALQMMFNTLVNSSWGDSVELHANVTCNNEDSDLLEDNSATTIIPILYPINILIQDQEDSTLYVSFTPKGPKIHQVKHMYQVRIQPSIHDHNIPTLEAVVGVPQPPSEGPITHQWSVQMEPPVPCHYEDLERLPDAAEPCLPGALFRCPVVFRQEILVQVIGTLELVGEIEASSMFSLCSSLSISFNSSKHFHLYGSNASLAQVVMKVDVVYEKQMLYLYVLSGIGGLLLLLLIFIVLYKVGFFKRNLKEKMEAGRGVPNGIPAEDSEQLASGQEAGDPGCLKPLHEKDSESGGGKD
T1 sequence (P05107 23-769): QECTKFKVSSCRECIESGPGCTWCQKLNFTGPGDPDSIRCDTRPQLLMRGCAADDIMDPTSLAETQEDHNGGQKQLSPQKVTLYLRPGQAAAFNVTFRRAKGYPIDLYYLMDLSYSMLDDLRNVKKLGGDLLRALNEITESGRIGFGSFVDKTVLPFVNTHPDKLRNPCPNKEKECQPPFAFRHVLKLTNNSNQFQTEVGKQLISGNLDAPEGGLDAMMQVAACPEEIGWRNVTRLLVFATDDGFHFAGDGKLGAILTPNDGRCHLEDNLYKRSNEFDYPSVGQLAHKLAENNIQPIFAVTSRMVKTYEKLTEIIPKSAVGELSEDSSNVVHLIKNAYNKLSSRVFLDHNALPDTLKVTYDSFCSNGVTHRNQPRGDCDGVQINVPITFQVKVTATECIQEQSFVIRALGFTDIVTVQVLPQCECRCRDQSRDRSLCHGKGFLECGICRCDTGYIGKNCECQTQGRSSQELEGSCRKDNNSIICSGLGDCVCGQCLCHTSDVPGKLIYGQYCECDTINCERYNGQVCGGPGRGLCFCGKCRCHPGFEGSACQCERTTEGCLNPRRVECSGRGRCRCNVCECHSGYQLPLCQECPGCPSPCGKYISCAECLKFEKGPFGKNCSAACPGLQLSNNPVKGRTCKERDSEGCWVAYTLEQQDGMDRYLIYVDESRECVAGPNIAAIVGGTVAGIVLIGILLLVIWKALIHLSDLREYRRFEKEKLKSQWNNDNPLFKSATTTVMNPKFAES

IC50 [1]: 0.3 nM | IC50 [2]: 0.3 nM
Structure (SMILES): Cc1cc(C(=O)NCc2cccc(O)c2)cc(Cl)c1C(=O)N[C@@H](CNC(=O)c1cc(O)cc(O)c1)C(=O)O [Example 341, N-[2-chloro-4-[[[(3-hydroxyphenyl)methyl]amino]carbonyl]-6-methylbenzoyl]-3-(3,5-dihydroxybenzoylamino)-L-alanine]
IC50 [3]: 3 nM
